# Measurements published in patent US20070249620A1, “Urea Derivative” (priority 2004, published 2007).
# Columns and labels:
# mouse DGAT1 = biological target: T1, mouse DGAT1 (Mus musculus, UniProt Q9Z2A7); assay: DGAT1 inhibitory effect test (microsome fraction, [14C]-oleoyl-CoA, triglyceride radioactivity by TLC); type: biochemical; details: 0.5 h; concentration of the test compound 0.1 μg/ml; mouse DGAT1 microsomes, 23° C., 30 minutes; read-out: Inhibitory ratio
# T1 construct: made in house; host or cells: insect cells (High Five, Sf9, Sf21, etc.), baculovirus expression system (Invitrogen)
# T1 sequence (Q9Z2A7 1-498): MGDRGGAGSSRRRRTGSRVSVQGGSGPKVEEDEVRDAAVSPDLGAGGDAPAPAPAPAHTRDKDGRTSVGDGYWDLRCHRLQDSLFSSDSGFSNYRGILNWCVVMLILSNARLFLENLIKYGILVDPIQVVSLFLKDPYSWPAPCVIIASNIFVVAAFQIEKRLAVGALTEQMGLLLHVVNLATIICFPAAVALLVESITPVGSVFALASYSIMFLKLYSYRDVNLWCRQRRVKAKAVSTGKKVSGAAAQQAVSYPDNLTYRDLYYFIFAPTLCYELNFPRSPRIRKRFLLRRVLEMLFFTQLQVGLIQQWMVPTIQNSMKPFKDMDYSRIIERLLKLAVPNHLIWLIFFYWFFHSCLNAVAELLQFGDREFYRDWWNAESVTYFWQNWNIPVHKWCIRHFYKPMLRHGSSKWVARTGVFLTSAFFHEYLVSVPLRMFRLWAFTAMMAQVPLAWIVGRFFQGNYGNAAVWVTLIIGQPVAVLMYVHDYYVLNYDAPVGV
# Protocol: The cDNA which encodes mouse DGAT1 was cloned from a mouse cDNA library by polymerase chain reaction (hereinafter referred to as “PCR”) and introduced into an insect cell virus vector (baculovirus expression system, Invitrogen). After insect cells (High Five, Sf9, Sf21, etc., Invitrogen) were infected with the virus, the cells were collected in buffer A [0.1M sucrose, 50 mM KCl, 40 mM potassium phosphate (pH 7.4), 30 mM EDTA, 1% Protease inhibitor cocktail (SIGMA, P-8340)] and crushed with a Polytron homogenizer. The supernatant obtained by subjecting the homogenate to low speed centrifugal processing (10,000 ×g, 30 minutes) was further subjected to higher-speed centrifugal processing (100,000 ×g, 60 minutes) and the precipitate was resuspended in buffer A as the microsome fraction and used as DGAT1 enzyme. The DGAT1 enzyme was divided into small volumes and stored at −80° C.
# (2) DGAT1 Inhibitory Effect Test
# The reaction liquid of the following composition [175 mM Tris-HCl (pH 8.0), 8 mM MgCl2, 1 mg/ml BSA, 0.5 mM 1,2-dioleoyl-sn-glycerol (EtOH solution of 10-fold concentration, 10% added), 30 μM[14C]-oleoyl-CoA (about 50 mCi/mmol), 0.5% triton X-100, DGAT1 enzyme (10 μg) obtained in Test Example 1(1), test compound or vehicle (DMSO/MeOH, 7:3 solution, 5% added), total volume 50 μl] was incubated at room temperature (23° C.) for 30 minutes. A reaction terminating solution (70 μl) consisting of isopropanol/1-heptane/water (80:20:2, v/v/v) was added to the reaction solution and stirred, and subsequently stirred with water (30 μl) and 1-heptane (100 μl). The 1-heptane layer (50 μl) was spotted onto a TLC plate and developed with a developing solvent consisting of 1-hexane/diethyl ether/acetic acid (85:15:1, v/v/v). Radioactivity of triglyceride fraction was quantified by BAS2000 bio image analyzer (Fuji Film) and the inhibitory effect of the test compounds was calculated by the following formula through comparison with control. Here, radioactivity at no reaction (0 minutes incubation) was assumed as background. Inhibitory ratio=100−[(Radioactivity when test compound was added)−(Background)]/[(Radioactivity by control)−(Background)]×100
SMILES,inhibition at 0.1 µg/mL (mouse DGAT1),melting point
"CC(C)c1ccc(NC(=O)Nc2ccc(N3CCN(C(=O)OC(C)(C)C)CC3)cc2)cc1 [Example 22, 4-{4-[3-(4-isopropyl-phenyl)-ureido]-phenyl}-piperazine-1-carboxylic acid tert-butyl ester]",≥ 50%,210 °C
"CC(C)(C)OC(=O)N1CCN(c2ccc(NC(=O)Nc3ccc(C(C)(C)C)cc3)cc2)CC1 [Example 33, 4-{4-[3-(4-tert-butyl-phenyl)-ureido]-phenyl}-piperazine-1-carboxylic acid tert-butyl ester]",≥ 50%,140 to 141 °C
"Cc1ccc(Cl)cc1NC(=O)Nc1ccc(N2CCN(C(=O)OC(C)(C)C)CC2)cc1 [Example 35, 4-{4-[3-(5-chloro-2-methyl-phenyl)-ureido]-phenyl}-piperazine-1-carboxylic acid tert-butyl ester]",≥ 50%,200 °C
"Cc1ccc(F)c(NC(=O)Nc2ccc(N3CCN(C(=O)OC(C)(C)C)CC3)cc2)c1 [Example 37, 4-{4-[3-(2-fluoro-5-methyl-phenyl)-ureido]-phenyl}-piperazine-1-carboxylic acid tert-butyl ester]",≥ 50%,211 to 214 °C
"CCOc1ccccc1NC(=O)Nc1ccc(N2CCN(C(=O)OC(C)(C)C)CC2)nc1 [Example 39, 4-{5-[3-(2-ethoxy-phenyl)-ureido]-pyridin-2-yl}-piperazine-1-carboxylic acid tert-butyl ester]",≥ 50%,162 °C
"COc1ccc(Cl)cc1NC(=O)Nc1ccc(N2CCN(C(=O)OC(C)(C)C)CC2)nc1 [Example 40, 4-{5-[3-(5-chloro-2-methoxy-phenyl)-ureido]-pyridin-2-yl}-piperazine-1-carboxylic acid tert-butyl ester]",≥ 50%,155 to 157 °C
"COc1ccc(C)cc1NC(=O)Nc1ccc(N2CCN(C(=O)Nc3ccc(Br)cc3C)CC2)cc1 [Example 70, 4-{4-[3-(2-methoxy-5-methyl-phenyl)-ureido]-phenyl}-piperazine-1-carboxylic acid (4-bromo-2-methyl-phenyl)-amide]",,191 to 193 °C
"COc1ccc(C)cc1NC(=O)Nc1ccc(N2CCN(C(=O)Nc3ccc(C)cc3C)CC2)cc1 [Example 71, 4-{4-[3-(2-methoxy-5-methyl-phenyl)-ureido]-phenyl}-piperazine-1-carboxylic acid (2,4-dimethyl-phenyl)-amide]",,196 to 199 °C
"COc1ccc(C)cc1NC(=O)Nc1ccc(N2CCN(C(=O)Nc3ccc(F)cc3F)CC2)cc1 [Example 72, 4-{4-[3-(2-methoxy-5-methyl-phenyl)-ureido]-phenyl)-piperazine-1-carboxylic acid (2,4-difluoro-phenyl)-amide]",,201 to 203 °C
"COc1ccc(C)cc1NC(=O)Nc1ccc(N2CCN(C(=O)Nc3ccc(Cl)cc3C)CC2)cc1 [Example 74, 4-{4-[3-(2-methoxy-5-methyl-phenyl)-ureido]-phenyl}-piperazine-1-carboxylic acid (4-chloro-2-methyl-phenyl)-amide]",,199 to 201 °C
"COc1ccc(C)cc1NC(=O)Nc1ccc(N2CCN(C(=O)Nc3cccc(C)c3C)CC2)cc1 [Example 108, 4-{4-[3-(2-methoxy-5-methyl-phenyl)-ureido]-phenyl}-piperazine-1-carboxylic acid (2,3-dimethyl-phenyl)-amide]",,217 to 219 °C
"COc1ccc(C)cc1NC(=O)Nc1ccc(N2CCN(C(=O)Nc3cccc(Cl)c3C)CC2)cc1 [Example 136, 4-{4-[3-(2-methoxy-5-methyl-phenyl)-ureido]-phenyl}-piperazine-1-carboxylic acid (3-chloro-2-methyl-phenyl)-amide]",,228 to 230 °C
"COc1ccc(Cl)cc1NC(=O)Nc1ccc(N2CCN(C(=O)Nc3c(C)cccc3OC)CC2)cc1 [Example 182, 4-{4-[3-(5-chloro-2-methoxy-phenyl)-ureido]-phenyl}-piperazine-1-carboxylic acid (2-methoxy-6-methyl-phenyl)-amide]",,165 to 167 °C
"COc1ccc(C)cc1NC(=O)Nc1ccc(N2CCN(C(=O)C3CC4CCC3C4)CC2)cc1 (stereo not shown) [Example 189, 1-{4-[4-(bicyclo[2.2.1]heptane-2-carbonyl)-piperazin-1-yl]-phenyl}-3-(2-methoxy-5-methyl-phenyl)-urea]",,126 to 128 °C
"COc1ccc(C)cc1NC(=O)Nc1ccc(N2CCN(C(=O)C3CCCCC3C)CC2)cc1 (stereo not shown) [Example 190, 1-(2-methoxy-5-methyl-phenyl)-3-{4-[4-(2-methyl-cyclohexanecarbonyl)-piperazin-1-yl]-phenyl}-urea]",,208 to 209 °C
"COc1ccc(C)cc1NC(=O)Nc1ccc(N2CCN(Cc3ccccc3)CC2)cc1 [Example 191, 1-[4-(4-benzyl-piperazin-1-yl)-phenyl]-3-(2-methoxy-5-methyl-phenyl)-urea]",,184 to 186 °C
"COc1ccc(C)cc1NC(=O)Nc1ccc(N2CCN(c3ncccn3)CC2)cc1 [Example 193, 1-(2-methoxy-5-methyl-phenyl)-3-[4-(4-pyrimidin-2-yl-piperazin-1-yl)-phenyl]-urea]",,220 to 221 °C
"COc1ccc(C)cc1NC(=O)Nc1ccc(N2CCN(C(=O)OC(C)(C)C)CC2)cc1C [Example 194, 4-{4-[3-(2-methoxy-5-methyl-phenyl)-ureido]-3-methyl-phenyl}-piperazine-1-carboxylic acid tert-butyl ester]",,169 to 171 °C
"COc1ccc(C)cc1NC(=O)Nc1ccc(N2CCN(C(=O)OC(C)(C)C)CC2)c(C)c1 [Example 195, 4-{4-[3-(2-methoxy-5-methyl-phenyl)-ureido]-2-methyl-phenyl}-piperazine-1-carboxylic acid tert-butyl ester]",,103 to 105 °C
"COc1ccc(C)cc1NC(=O)Nc1ccc(N2CCC(C(=O)Nc3c(C)cccc3Cl)CC2)cc1 [Example 196, 1-{4-[3-(2-methoxy-5-methyl-phenyl)-ureido]-phenyl}-piperidine-4-carboxylic acid (2-chloro-6-methyl-phenyl)-amide]",,> 250 °C (dec.)
"COc1ccc(C)cc1NC(=O)Nc1ccc2c(c1)C=CN(C(=O)Nc1c(C)cccc1Cl)C2 [Example 202, 6-[3-(2-methoxy-5-methyl-phenyl)-ureido]-3,4-dihydrido-1H-isoquinoline-2-carboxylic acid (2-chloro-6-methyl-phenyl)-amide]",,216 to 218 °C
"COc1ccc(C)cc1NC(=O)Nc1ccc(N2CCC(C(=O)c3ccccc3)CC2)nc1 [Example 205, 1-(4-benzoyl-3,4,5,6-tetrahydro-2H-[1,2′]bipyridinyl-5′-yl)-3-(2-methoxy-5-methyl-phenyl)-urea]",,193 to 194 °C
"COc1ccc(C)cc1NC(=O)Nc1ccc2c(c1)CCN(C(=O)Nc1ncccc1C)C2 [Example 297, 6-[3-(2-methoxy-5-methyl-phenyl)-ureido]-3,4-dihydro-1H-isoquinoline-2-carboxylic acid (3-methyl-pyridin-2-yl)-amide]",≥ 50%,
"CCOP(=O)(Cc1ccc(NC(=O)N2CCN(c3ccc(NC(=O)Nc4cc(C)ccc4OC)cc3)CC2)c(C)c1)OCC [Example 390, {4-[(4-{4-[3-(2-methoxy-5-methyl-phenyl)-ureido]-phenyl}-piperazine-1-carbonyl)-amino]-3-methyl-benzyl}-phosphonic acid diethyl ester]",≥ 50%,
"COc1ccc(C)cc1NC(=O)Nc1ccc(N2CCN(C(=O)C(O)c3ncccc3C)CC2)cc1 (stereo not shown) [Example 427, 1-(4-{4-[2-hydroxy-2-(3-methyl-pyridin-2-yl)-acetyl]-piperazin-1-yl}-phenyl)-3-(2-methoxy-5-methyl-phenyl)-urea]",,199 to 200 °C
